{
  "source": "paper PMC12152171",
  "about": "“Dual-mode recognition of tRNA^Pro isoacceptors by Toxoplasma gondii Prolyl-tRNA synthetase” (EMBO Reports, 2025)",
  "key": {"[1]": {"biological_target": "T1, Toxoplasma gondii prolyl-tRNA synthetase (TgProRS) (Toxoplasma gondii, UniProt S8G8I1)", "T1 construct": "gene TGME49_219850; lacking OTS and ProXp-ala (amino acid residues 1–333 removed), N-terminal His10 tag", "T1 sequence (S8G8I1 entry or part of it)": "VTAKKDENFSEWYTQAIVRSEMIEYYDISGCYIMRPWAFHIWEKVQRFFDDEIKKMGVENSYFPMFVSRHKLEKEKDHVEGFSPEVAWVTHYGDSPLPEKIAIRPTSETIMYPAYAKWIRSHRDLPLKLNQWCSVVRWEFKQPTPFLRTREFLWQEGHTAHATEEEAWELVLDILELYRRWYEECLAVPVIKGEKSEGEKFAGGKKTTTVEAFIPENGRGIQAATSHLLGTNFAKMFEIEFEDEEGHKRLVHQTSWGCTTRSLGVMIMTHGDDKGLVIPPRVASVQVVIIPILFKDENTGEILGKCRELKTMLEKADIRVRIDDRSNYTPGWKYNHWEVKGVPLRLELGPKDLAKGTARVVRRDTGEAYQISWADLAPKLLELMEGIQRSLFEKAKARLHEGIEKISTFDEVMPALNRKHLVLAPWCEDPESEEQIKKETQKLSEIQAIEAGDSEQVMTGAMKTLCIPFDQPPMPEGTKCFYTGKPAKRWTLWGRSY", "experiment": "[3H]-proline aminoacylation inhibition assay with cytosolic tRNA(Pro) (TgtRNAn^Pro); IC50 […] with apicoplast TgtRNAa^Pro", "assay_type": "biochemical"}, "[2]": {"biological_target": "T1, Toxoplasma gondii prolyl-tRNA synthetase (TgProRS)", "experiment": "[3H]-proline aminoacylation inhibition assay with cytosolic tRNA(Pro) (TgtRNAn^Pro); IC50 […] with apicoplast TgtRNAa^Pro", "assay_type": "biochemical", "remark": "listed apart in the source"}},
  "note": "Where two headings read alike, the source gives them in different places.",
  "data": [
    {"smiles": "O=C(C[C@H]1NCCC[C@@H]1O)Cn1cnc2cc(Br)c(Cl)cc2c1=O", "note": "(racemic) [HF, Halofuginone]", "values": [
      {"measurement": "IC50", "setting": "[1]", "value": 0.005, "unit": "µM"}
    ]},
    {"smiles": "O=C(O)[C@@H]1CCN1", "note": "[A2C, Azetidine-2-carboxylic acid]", "values": [
      {"measurement": "IC50", "setting": "[2]", "value": 1300, "unit": "µM"}
    ]}
  ]
}
